Experimental findings from patent US20240091241A1, “USE OF CANNABIDIOL PREPARATIONS IN THE TREATMENT OF TEMPORAL LOBE EPILEPSY” (GW Research Limited, priority 2019, published 2024) are described below.

In data set [1] the test system is rat model of temporal lobe epilepsy, Reduced Intensity Status Epilepticus (RISE). Briefly: Post-Seizure Behavioural Battery (PSBB) in the Reduced Intensity Status Epilepticus (RISE) model. Type of data set: in vivo. The procedure:
Reduced Intensity Status Epilepticus (RISE) model
The method, which detects anti-epileptic activity follows that described by Modebaze et al., 2016 (PLoS one, 11(2):e0147265).
On Day 1, the rats were treated with lithium chloride (127 mg/kg, 5 mL/kg, s.c.). Approximately 24 hours after, on Day 2, a-methyl scopolamine (1 mg/kg, 1 mL/kg, s.c.) was administered to reduce peripheral manifestations of muscarinic cholinergic receptor activation. Thirty minutes later, a dose of pilocarpine chloride was injected (range from 25 mg/kg×1 to 40 mg/kg×5, i.e. 25-200 mg/kg, 1 mL/kg, s.c., reference P6503, Sigma). […]
Status epilepticus was determined when seizure severity was equal to a score of 5 on a Racine's scale. […]
Behavioural signs of status epilepticus were ceased within 30 minutes and animals were then closely monitored during subsequent recovery. They were visually monitored until ambulatory and able to consume water and moistened, powdered food. […]
The lithium-pilocarpine rats were assessed in the two following behavioural tests twice weekly over the next 10 weeks, starting two weeks after status epilepticus induction (on Day 15). […]
The PSBB score was analysed pre and post-treatment to assess firstly if the animals were evenly distributed in the 3 different treatment groups based on their epileptic phenotype and if it was affected differently by synthetic and botanical CBD. […]

In data set [2] the test system is Li-Pilo rats. Briefly: Elevated plus-maze test in Li-Pilo rats. Type of data set: in vivo, rat. Particulars: 200 mg/kg, given orally for 6/7 weeks before the test. The procedure:
(§1) From this point, the rats selected received vehicle during the first week of dosing then the test substance, CBD (SYN) or CBD (BOT 0.08%), at 200 mg/kg in drinking water until the end of the study, i.e. 7 weeks (1 week vehicle+6 weeks test substance). Dosing continued throughout the behavioural testing period (1 week). The drink was changed twice a week, until the end of the experiment.
The behavioural tests started 6 weeks after the beginning of dosing, i.e. between weeks 11 and 13. The rats were tested in sub-groups, depending on the beginning of the treatment. The behavioural tests included the elevated plus maze, social investigation, social recognition and accelerating rotarod tests (tests done in this order on the week of assessment).
The method, which detects anxiolytic activity, follows that described by Handley and Mithani (Naunyn. Schmied. Arch. Pharmacol., 327, 1-5, 1984). Rodents avoid open spaces (the open arms of an elevated plus-maze). Anxiolytics increase exploratory activity in the open arms, as indicated by increased time spent on the open arms and/or by increased % open-arm entries.
The maze consisted of 4 arms of equal length and width (50×10 cm) arranged in the form of a plus sign (+). Two opposite arms were enclosed by 40 cm high walls (closed arms). The 2 other arms had no walls (open arms). The maze was raised approximately 65 cm above the floor. A rat was placed in the center of the plus-maze and was left to explore for 5 minutes. The number of entries into the open and closed arms and the time spent on the open arms were recorded. The % of open arm entries (open arm entries/total arm entries×100) was calculated.
A test of normality (D'Agostino and Pearson) was done to check the distribution of the data before applying the appropriate statistical analysis. Data on the total number of entries and on the percent of entries in open arms was analyzed using One-Way analysis of variance (ANOVA) followed by Sidak's multiple comparisons test. Data on the time spent in open arms was analysed using Kruskal-Wallis Test followed by Dunn's multiple comparisons test.

Data set [3] concerns Li-Pilo rats. Briefly: Social investigation test in Li-Pilo rats. Type of data set: in vivo, rat. The following applies: 200 mg/kg, given orally for 6/7 weeks before the test. The procedure:
as §1
The behavioural tests started 6 weeks after the beginning of dosing, i.e. between weeks 11 and 13. The rats were tested in sub-groups, depending on the beginning of the treatment. […]
Two unfamiliar rats (housed in 2 separate cages) from the same group were placed in an unfamiliar testing arena (80×80×40 cm) under dim light (<100 Lux). The behavior of the 2 rats was recorded for 10 minutes.
The time each rat spent investigating (sniffing, grooming, licking, closely following) the other rat was measured manually for 10 minutes. Locomotor activity (line crossing) was also recorded.
A test of normality (D'Agostino and Pearson) was done to check the distribution of the data before applying the appropriate statistical analysis. Data on the investigation duration was analyzed using Kruskal-Wallis Test followed by Dunn's multiple comparisons test. Data on the number of crossings was analysed using One-Way ANOVA followed by Sidak's multiple comparisons test.

Data set [4] is described as follows: General status / body weight of Li-Pilo rats during treatment. Type of data set: in vivo, rat. The procedure: as §1
The rats were weighed twice a week, at the same time that the vehicle/formulations were changed in the bottles. The glass bottles were also weighed twice a week for evaluating the volume drunk by the rat and adjusting the concentration during the experiment.

Structures are written as SMILES.

Take `C=C(C)[C@@H]1CCC(C)=C[C@H]1c1c(O)cc(CCCCC)cc1O` [Synthetic CBD, cannabidiol]: the “post-treatment PSBB score, as compared with control Li-Pilo rats (epileptic vehicle)” value in data set [1] (200 mg/kg, given orally for 6/7 weeks before the test) is recorded as “did not significantly affect”. Moreover, the “post-treatment PSBB score (conclusion)” value in data set [1] (epileptic animals, comparator not stated) is given as “failed to lower the score”. Moreover, in the data set with Li-Pilo rats [2], the “percent of entries in open arms, as compared with control Li-Pilo rats” value was “did not clearly affect” and the “time spent in open arms, as compared with control Li-Pilo rats” value was “did not clearly affect”. Moreover, in the data set with Li-Pilo rats [2] (5 minutes), the “total number of entries, as compared with control Li-Pilo rats” value is listed as “did not clearly affect”. In the data set with Li-Pilo rats [3], the “duration of investigation, as compared with control Li-Pilo rats” value is given as “did not significantly change” and the “number of line crossings, as compared with control Li-Pilo rats” value was “did not significantly change”. In addition, the “rats that lost weight on the 7 weeks of test” value in data set [4] (Phase 1) is “Three other rats lost weight”. Moreover, the “deaths in the treated group” value in data set [4] (Phase 1, nine rats in group) is “Two rats died”. The “rats that lost weight on the 7 weeks of test” value in data set [4] (Phase 2) is “Four other rats lost weight”. The “rats lost before the end of the experiment” value in data set [4] (Phase 2, thirteen rats in group) is recorded as “One rat was sacrificed for ethical reasons”.
